# Where a name gives a salt, the structure may show the parent alone.
# Tested on: Pseudomonas aeruginosa AJ 2116
# Experiment: Minimum Inhibitory Concentration (MIC) against Pseudomonas aeruginosa AJ 2116 in culture
# Format: cell-based
# Conditions: for MIC: AJ2116, read-out: MIC (minimum concentration of the compound required to inhibit the growth of the test organism in a culture)
# Description: Comparative Minimun Inhibitory Concentrations (MIC) (the minimum concentration of the compound in micrograms per milliliter required to inhibit the growth of the test organism in a culture) obtained using Pseudomonas aeruginosa AJ 2116 as the test organism, are presented in Table 2.
Structure (SMILES),MIC,MIC (minimum concentration of the compound required to inhibit the growth of the test organism in a culture)
"O=C([O-])C1=C(C[n+]2ccc(CCS(=O)(=O)O)cc2)CS[C@@H]2[C@H](NC(=O)[C@H](NC(=O)c3nc[nH]c3C(=O)O)c3ccccc3)C(=O)N12 [Example 5, 7-β-[D-(-)-α-(4-carboxyimidazole-5-carboxamido)phenylacetamido]-3-(4-α-sulphoethylpyridiniummethyl-3-cephem-4-carboxylic acid disodium salt trihydrate]",12.5 µg/mL,
"CC(=O)OCC1=C(C(=O)O)N2C(=O)[C@@H](NC(=O)[C@H](NC(=O)c3nc[nH]c3C(=O)O)c3ccc(O)cc3)[C@H]2SC1 [Example 3d, 7-β-[D(-)-α-(4-carboxyimidazole-5-carboxamido)-p-hydroxyphenylacetamido]cephalosporanic acid]",50 µg/mL,
"CC1(C)S[C@@H]2[C@H](NC(=O)[C@H](N)c3ccccc3)C(=O)N2[C@H]1C(=O)O [Ampicillin, reference compound]",> 500 µg/mL,
"CC1(C)S[C@@H]2[C@H](NC(=O)[C@H](NC(=O)c3nc[nH]c3C(=O)O)c3ccc(O)cc3)C(=O)N2[C@H]1C(=O)O [Example 3c, D-α-(4-carboximidazole-5-carboxamido)-p-hydroxybenzylpenicillin monohydrate]",12.5 µg/mL,
"CC1(C)S[C@@H]2[C@H](NC(=O)[C@H](NC(=O)c3nc[nH]c3C(=O)O)c3ccccc3)C(=O)N2[C@H]1C(=O)O [Example 3b, D-α-(4-carboxyimidazole-5-carboxamido)benzylpenicillin]",12.5 µg/mL,
"CC(=O)OCC1=C(C(=O)O)N2C(=O)[C@@H](NC(=O)[C@H](NC(=O)c3[nH]cnc3C(=O)O)c3ccccc3)C2SC1 (stereo partly drawn) [Example 3a, 7-β-[D(-)-α-(4-carboxyimidazole-5-carboxamido)phenylacetamido]cephalosporanic acid]",,50 µg/mL
"CC1(C)S[C@@H]2[C@H](NC(=O)C(C(=O)O)c3ccccc3)C(=O)N2[C@H]1C(=O)O (stereo partly drawn) [Carbenicillin, reference compound]",100 µg/mL,
"Cn1nnnc1SCC1=C(C(=O)O)N2C(=O)[C@@H](NC(=O)[C@H](NC(=O)c3nc[nH]c3C(=O)O)c3ccccc3)[C@H]2SC1 [Example 4, 7-β-[D-(-)-α-(4-carboxyimidazole-5-carboxamido)phenylacetamido]-3-[[(1-methyl-1H-tetrazol-5-yl)thio]methyl]-3-cephem-4-carboxylic acid monohydrate]",50 µg/mL,
"O=C(O)Cc1ccc[n+](CC2=C(C(=O)[O-])N3C(=O)[C@@H](NC(=O)[C@H](NC(=O)c4nc[nH]c4C(=O)O)c4ccccc4)[C@H]3SC2)c1 [Example 6, disodium salt]",12.5 µg/mL,

# Source: patent US4297279A, “Imidazoledicarboxylic acid derivative” (Ajinomoto Co., Inc., priority 1979, dated 1981)
